Assay results taken from US10537563B2, “Methods for treating ocular disease using inhibitors of CSF-1R” (NOVARTIS AG, priority 2016, dated 2020).

What was measured:
Cdk7 cyclinH MAT1 = Cdk7 cyclinH MAT1 (Homo sapiens, UniProt P50613); assay: In vitro kinase assay (Table 1); assay type: biochemical
FGFR2 = FGFR2 (Homo sapiens, UniProt P21802); assay: In vitro kinase assay (Table 1); assay type: biochemical
KDR = KDR (Homo sapiens, UniProt P35968); assay: In vitro kinase assay (Table 1); assay type: biochemical; settings: KDR=VEGF receptor
KDR, sequence (P35968 20-1356, species assumed): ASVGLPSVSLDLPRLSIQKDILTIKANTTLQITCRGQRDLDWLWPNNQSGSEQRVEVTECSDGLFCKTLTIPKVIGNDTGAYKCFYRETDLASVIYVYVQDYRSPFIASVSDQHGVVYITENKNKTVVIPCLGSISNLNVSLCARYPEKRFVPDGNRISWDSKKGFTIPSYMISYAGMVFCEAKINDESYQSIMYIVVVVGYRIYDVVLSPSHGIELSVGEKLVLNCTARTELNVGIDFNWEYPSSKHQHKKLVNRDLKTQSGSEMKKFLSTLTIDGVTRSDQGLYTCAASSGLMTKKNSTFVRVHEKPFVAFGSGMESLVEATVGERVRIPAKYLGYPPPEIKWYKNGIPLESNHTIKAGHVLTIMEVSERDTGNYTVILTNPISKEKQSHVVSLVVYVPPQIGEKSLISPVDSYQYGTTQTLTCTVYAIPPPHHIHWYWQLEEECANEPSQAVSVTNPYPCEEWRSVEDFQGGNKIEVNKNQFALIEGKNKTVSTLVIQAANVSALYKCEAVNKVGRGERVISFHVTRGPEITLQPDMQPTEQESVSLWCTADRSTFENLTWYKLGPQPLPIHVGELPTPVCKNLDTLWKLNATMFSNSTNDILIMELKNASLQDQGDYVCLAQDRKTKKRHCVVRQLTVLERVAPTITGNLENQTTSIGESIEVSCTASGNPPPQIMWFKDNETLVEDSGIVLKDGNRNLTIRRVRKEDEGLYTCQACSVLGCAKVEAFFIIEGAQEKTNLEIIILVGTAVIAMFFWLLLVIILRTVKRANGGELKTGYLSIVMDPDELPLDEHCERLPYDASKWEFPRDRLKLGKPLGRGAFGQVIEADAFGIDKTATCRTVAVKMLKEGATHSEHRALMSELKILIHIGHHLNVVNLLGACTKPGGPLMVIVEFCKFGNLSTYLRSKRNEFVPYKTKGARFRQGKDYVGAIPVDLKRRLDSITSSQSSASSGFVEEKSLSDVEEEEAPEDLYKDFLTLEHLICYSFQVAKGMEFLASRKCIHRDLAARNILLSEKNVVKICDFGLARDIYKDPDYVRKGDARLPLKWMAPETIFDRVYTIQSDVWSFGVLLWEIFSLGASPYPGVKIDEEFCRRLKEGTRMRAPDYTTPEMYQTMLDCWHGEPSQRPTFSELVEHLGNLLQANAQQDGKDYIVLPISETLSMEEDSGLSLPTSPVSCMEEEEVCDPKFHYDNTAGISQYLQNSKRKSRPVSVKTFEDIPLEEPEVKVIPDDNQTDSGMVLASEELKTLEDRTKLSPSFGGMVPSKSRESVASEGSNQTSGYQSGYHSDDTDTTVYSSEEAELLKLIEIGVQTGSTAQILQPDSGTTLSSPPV

mut_bRaf_V599E = mut_bRaf_V599E (Homo sapiens, UniProt P15056, V600E); assay: In vitro kinase assay (Table 1); assay type: biochemical
PAK1 = PAK1 (Homo sapiens, UniProt Q13153); assay: In vitro kinase assay (Table 1); assay type: biochemical
PIK3Cbeta = PIK3Cbeta (Homo sapiens, UniProt P42338); assay: In vitro kinase assay (Table 1); assay type: biochemical
PIK3Cbeta, sequence (P42338 whole entry): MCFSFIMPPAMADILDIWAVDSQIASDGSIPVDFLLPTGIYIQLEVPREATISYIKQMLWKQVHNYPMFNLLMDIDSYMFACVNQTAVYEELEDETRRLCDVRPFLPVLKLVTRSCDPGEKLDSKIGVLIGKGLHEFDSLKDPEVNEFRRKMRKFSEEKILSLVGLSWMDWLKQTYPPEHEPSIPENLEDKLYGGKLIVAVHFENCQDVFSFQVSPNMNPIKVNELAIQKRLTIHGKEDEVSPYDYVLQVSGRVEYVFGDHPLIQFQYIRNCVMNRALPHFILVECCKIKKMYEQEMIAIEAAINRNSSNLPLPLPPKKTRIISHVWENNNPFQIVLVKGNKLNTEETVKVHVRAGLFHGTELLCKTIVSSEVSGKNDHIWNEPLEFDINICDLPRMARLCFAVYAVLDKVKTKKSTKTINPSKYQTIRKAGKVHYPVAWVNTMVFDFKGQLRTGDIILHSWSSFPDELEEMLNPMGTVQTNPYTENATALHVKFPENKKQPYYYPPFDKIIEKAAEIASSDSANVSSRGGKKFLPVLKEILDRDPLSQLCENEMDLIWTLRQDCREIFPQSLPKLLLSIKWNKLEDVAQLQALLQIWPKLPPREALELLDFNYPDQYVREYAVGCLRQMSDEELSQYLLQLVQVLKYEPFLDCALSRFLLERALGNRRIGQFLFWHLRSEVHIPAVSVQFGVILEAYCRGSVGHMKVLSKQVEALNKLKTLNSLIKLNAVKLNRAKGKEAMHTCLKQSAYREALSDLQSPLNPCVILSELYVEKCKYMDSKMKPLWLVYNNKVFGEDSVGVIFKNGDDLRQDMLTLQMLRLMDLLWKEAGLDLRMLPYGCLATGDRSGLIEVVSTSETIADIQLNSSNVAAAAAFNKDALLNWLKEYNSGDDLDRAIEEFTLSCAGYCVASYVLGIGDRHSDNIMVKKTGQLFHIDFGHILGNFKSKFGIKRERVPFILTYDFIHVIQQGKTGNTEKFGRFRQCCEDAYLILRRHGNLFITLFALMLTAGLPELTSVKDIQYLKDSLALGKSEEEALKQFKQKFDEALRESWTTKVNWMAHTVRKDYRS
PIK3Cbeta, sequence (P27986 whole entry partner): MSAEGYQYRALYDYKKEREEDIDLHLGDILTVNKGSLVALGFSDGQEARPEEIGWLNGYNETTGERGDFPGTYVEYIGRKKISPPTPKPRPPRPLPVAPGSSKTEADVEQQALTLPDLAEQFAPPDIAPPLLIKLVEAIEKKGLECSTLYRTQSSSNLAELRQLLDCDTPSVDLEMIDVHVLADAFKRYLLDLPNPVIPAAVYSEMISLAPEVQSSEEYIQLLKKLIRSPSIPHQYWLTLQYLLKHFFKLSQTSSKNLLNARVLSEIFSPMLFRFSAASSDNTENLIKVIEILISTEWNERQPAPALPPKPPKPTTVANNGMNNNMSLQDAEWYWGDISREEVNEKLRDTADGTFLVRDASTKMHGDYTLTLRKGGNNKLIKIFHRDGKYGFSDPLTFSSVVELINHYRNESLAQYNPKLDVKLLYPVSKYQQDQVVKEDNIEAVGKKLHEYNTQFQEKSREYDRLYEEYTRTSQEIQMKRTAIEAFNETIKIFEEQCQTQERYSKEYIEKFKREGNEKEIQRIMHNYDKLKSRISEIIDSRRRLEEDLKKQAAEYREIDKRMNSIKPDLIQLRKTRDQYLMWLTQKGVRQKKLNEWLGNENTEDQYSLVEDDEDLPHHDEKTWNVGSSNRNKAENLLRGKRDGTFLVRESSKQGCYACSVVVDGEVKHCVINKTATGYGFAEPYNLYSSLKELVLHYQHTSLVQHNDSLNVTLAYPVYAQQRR

Pim1 = Pim1 (Homo sapiens, UniProt P11309); assay: In vitro kinase assay (Table 1); assay type: biochemical
Pim1, sequence (P11309 whole entry, species assumed): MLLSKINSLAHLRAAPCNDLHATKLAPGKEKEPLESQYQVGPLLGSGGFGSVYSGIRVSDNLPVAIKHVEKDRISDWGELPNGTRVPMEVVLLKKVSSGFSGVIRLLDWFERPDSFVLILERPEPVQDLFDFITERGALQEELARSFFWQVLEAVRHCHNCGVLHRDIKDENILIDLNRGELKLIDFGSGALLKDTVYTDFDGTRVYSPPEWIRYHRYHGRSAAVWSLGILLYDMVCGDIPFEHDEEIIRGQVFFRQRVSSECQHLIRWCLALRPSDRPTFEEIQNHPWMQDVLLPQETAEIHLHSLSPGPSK

Plk1 = Plk1 (Homo sapiens, UniProt P53350); assay: In vitro kinase assay (Table 1); assay type: biochemical
TAK1 = TAK1 (Homo sapiens, UniProt O43318); assay: In vitro kinase assay (Table 1); assay type: biochemical
TRKB = TRKB (Homo sapiens, UniProt Q16620); assay: In vitro kinase assay (Table 1); assay type: biochemical
TRKB, sequence (Q16620 32-822, species assumed): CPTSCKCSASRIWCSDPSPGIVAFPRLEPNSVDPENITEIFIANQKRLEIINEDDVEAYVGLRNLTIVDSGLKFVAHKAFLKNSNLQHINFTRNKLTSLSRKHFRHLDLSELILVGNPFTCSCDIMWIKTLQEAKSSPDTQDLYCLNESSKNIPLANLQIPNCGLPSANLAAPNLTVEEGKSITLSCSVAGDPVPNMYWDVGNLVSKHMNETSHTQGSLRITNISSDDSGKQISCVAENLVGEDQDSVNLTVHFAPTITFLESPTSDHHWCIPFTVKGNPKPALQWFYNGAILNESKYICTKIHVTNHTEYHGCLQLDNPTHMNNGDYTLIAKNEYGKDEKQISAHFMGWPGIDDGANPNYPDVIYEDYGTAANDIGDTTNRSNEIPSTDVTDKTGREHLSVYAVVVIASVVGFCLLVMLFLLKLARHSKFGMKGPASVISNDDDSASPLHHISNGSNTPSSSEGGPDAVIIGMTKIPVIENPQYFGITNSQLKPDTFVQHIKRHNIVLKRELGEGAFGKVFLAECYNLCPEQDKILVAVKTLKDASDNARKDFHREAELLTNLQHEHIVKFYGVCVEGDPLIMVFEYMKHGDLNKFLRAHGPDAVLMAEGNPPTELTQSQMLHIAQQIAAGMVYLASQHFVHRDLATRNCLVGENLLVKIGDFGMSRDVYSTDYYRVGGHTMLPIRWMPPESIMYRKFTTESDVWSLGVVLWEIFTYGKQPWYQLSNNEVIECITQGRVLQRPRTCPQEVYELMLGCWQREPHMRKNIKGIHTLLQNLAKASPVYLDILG

BAF/Tel-EphA3-4.2/sACP = biological target: T1, BAF/Tel-EphA3-4.2/sACP (Homo sapiens, UniProt P29320); assay: BaF3 proliferation assay; assay type: cell-based, murine
T1 construct: fused on or other part: P41212 (Transcription factor ETV6)

BAF/Tel-MER-3.2 = biological target: T2, BAF/Tel-MER-3.2 (Homo sapiens, UniProt Q12866); assay: BaF3 proliferation assay; assay type: cell-based, murine
T2 construct: fused on or other part: P41212 (Transcription factor ETV6)
T2 sequence (Q12866 587-858 limits assumed, change not shown): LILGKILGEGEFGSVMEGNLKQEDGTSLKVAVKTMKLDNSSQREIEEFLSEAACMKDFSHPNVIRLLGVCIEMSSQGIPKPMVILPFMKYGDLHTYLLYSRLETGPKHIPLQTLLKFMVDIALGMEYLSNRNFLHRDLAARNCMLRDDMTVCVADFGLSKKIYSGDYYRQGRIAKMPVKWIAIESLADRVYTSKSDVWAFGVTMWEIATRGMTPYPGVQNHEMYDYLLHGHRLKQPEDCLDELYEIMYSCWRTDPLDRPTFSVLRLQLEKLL

BAF/Tel-TRKB-Q2/sACP = biological target: T3, BAF/Tel-TRKB-Q2/sACP (Homo sapiens, UniProt Q16620); assay: BaF3 proliferation assay; assay type: cell-based, murine
T3 construct: fused on or other part: P41212 (Transcription factor ETV6)

BAF/Tel-InsR-Q.4/sACP = biological target: T4, BAF/Tel-InsR-Q.4/sACP (Homo sapiens, UniProt P06213); assay: BaF3 proliferation assay; assay type: cell-based, murine
T4 construct: fused on or other part: P41212 (Transcription factor ETV6)
T4 sequence (P06213 1023-1298 limits assumed, stated change not applied): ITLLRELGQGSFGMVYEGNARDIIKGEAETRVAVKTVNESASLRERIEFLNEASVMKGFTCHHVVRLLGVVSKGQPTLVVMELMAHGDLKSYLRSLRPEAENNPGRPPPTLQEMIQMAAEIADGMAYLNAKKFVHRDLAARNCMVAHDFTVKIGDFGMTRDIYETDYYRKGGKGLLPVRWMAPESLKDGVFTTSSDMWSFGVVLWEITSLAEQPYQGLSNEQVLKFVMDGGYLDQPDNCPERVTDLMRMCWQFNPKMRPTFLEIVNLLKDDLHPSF

BAF/Tel-FGR-2.1/sACP = biological target: T5, BAF/Tel-FGR-2.1/sACP (Homo sapiens, UniProt P09769); assay: BaF3 proliferation assay; assay type: cell-based, murine
T5 construct: fused on or other part: P41212 (Transcription factor ETV6)
T5 sequence (P09769 263-516 limits assumed, change not shown): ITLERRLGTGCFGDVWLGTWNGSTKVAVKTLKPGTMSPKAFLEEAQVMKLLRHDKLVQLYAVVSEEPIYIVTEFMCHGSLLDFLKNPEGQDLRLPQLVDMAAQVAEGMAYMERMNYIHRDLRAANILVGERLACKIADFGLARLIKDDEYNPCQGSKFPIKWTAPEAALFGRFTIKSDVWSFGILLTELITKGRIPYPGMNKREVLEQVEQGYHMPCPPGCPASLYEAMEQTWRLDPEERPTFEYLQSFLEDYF

CD163 = CD163 expression in M2c macrophages; assay type: cell-based, human
Procedure: (§1) Freshly isolated human PBMCs were used to purify human monocytes by negative selection using an indirect magnetic labeling system. […] Soluble factors such as cytokines (VEGFa, IL-6 etc.) and chemokines (IL-8, MCP-1, MMP9 etc.) in the culture supernatant were measured using commercial ELISA kits. The in vitro survival of human macrophages was measured using a commercially available CellTiter-Glo® system. Most observed results were repeated in multiple donors (n>5).

IL-8 = IL-8 production by human monocytes (ELISA); assay type: cell-based; settings: Monocyte
Procedure: as §1

CNC(=O)c1cc(Oc2ccc3nc(NC4CCCCC4O)sc3c2)ccn1 (centres unmarked) [Compound (I)] gave an IC50 (Cdk7 cyclinH MAT1) greater than 10 µM, an IC50 (FGFR2) greater than 10 µM and an IC50 (KDR) greater than 25 µM. For the same compound, the IC50 (mut_bRaf_V599E) was greater than 25 µM, the IC50 (PAK1) was greater than 25 µM and the IC50 (PIK3Cbeta) was greater than 25 µM. For the same compound, the IC50 (Pim1) was greater than 25 µM, the IC50 (Plk1) was greater than 25 µM and the IC50 (TAK1) was greater than 10 µM. It also gave an IC50 (TRKB) greater than 10 µM, an EC50 (BAF/Tel-EphA3-4.2/sACP) greater than 10 µM and an EC50 (BAF/Tel-MER-3.2) greater than 10 µM. The EC50 (BAF/Tel-TRKB-Q2/sACP) was greater than 10 µM, the EC50 (BAF/Tel-InsR-Q.4/sACP) was greater than 10 µM and the EC50 (BAF/Tel-FGR-2.1/sACP) was greater than 10 µM. For the same compound, the “CD163 expression in M2c macrophages” value (CD163) was “no Compound (I) dose effect” and the inhibition at 0.05 µM (IL-8) was 7 to 90%.
